Source: patent publication US20050220900A1, “Use of extracts containing phytoestrogen selectively modulating estrogen-receptor-beta” (priority 2002, published 2005)

Assays:
porcine luteal cells = assay: progesterone secretion of porcine luteal cells; assay type: cell-based; settings: anti-estrogen alone
Method: To reinforce this conclusion, the cells were incubated with vitex agnus castus extract along with the anti-estrogen tamoxifen.

[1] = test system: human granulosa/luteal cells; assay: progesterone secretion of human granulosa/luteal cells; assay type: cell-based; settings: 5-hour incubation, 1 μM
Source text: Luteal cell cultures are an established test method for the paracrine effect of steroids. Such cells are not available from humans, since all surgical procedures in which biopsies can be taken are always performed at the follicular phase to avoid the risk of an undetected pregnancy. However, these granulosa/luteal cells become available in the course of in vitro fertilization programs and are maintained in culture, and they behave very much like luteal cells in terms of receptor population and secretory function. An estrogenic effect of vitex agnus castus was tested with this human in vitro testing system. […] FIG. 5: […] The * indicates a significant deviation from the (culture) medium control. FIG. 6 summarizes the effect of vitex agnus castus extracts upon progesterone secretion under this testing system after a 5-hour incubation.

SMILES	effect on progesterone excretion, tamoxifen alone (porcine luteal cells)	effect on progesterone secretion [1]
CC/C(=C(\c1ccccc1)c1ccc(OCCN(C)C)cc1)c1ccccc1 [tamoxifen]	without effect	
C[C@]12CC[C@@H]3c4ccc(O)cc4CC[C@H]3[C@@H]1CC[C@H]2O [17-alpha estradiol, estradiol 17-alpha]		no effect
